Source: US20240376094A2, “SELECTIVE BCL-XL PROTAC COMPOUNDS AND METHODS OF USE” (Les Laboratoires Servier, priority 2021, published 2024)

How the values were obtained:
Format in all cases: cell-based
[1] = tested on: MOLT-4 cells; test: MOLT-4 cell viability, CTG assay; details: Homo sapiens, MOLT-4, 48 h
Method in brief: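 Cells grown in RPMI 1640 with 10% FBS at 37° C, 5% CO2, then exposed to compounds for 48 h (11-point 5-fold dilution, triplicates). ATP measured by CellTiter-Glo luminescence; IC50 from four-parameter fit versus control, mean of ≥2 independent experiments.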

[2] = biological target: T1, Bcl-xL (Homo sapiens, UniProt Q07817); test: HCT116 Bcl-xL degradation, capillary-based immunoassay (WES); details: HCT116, 24 h, 9-point serial dilution
T1 construct: Measured levels of Bcl-xL protein of HCT116 cells treated with the tested compounds; host or cells: HCT116
Method in brief: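 HCT116 cells treated 24 h with compound at 10/100 nM and/or 9-point dilution (quadruplicates), then lysed. Bcl-xL measured by capillary WES immunoassay, normalized to cofilin and expressed as % of untreated cells. DC50 from four-parameter curve fit.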

[3] = tested on: EBC-1 lung cancer cell line; test: EBC-1 cell proliferation, CellTiter-Glo assay; details: Homo sapiens, 120 h; Ebc-1 cell viability, CTG assay, 5 days of treatment; read-out: CTG 5 day Ebc1 GI50
Method in brief: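 EBC-1 cells seeded at 1000 per well overnight, then exposed to 10-point dilutions (0.508 nM–10 μM final) for 5 days at 37 °C, in triplicate. ATP luminescence by CellTiter-Glo, normalised to untreated wells; GI50 from four-parameter logistic fit, runs valid only with at least one doubling.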

[4] = biological target: T2, HiBiT-tagged BCL-xL (Homo sapiens, UniProt Q07817); test: NCI-H1650 BCL-xL protein levels, Nano-Glo HiBiT Lytic Detection; details: NCI-H1650 expressing HiBiT-tagged BCL-xL, overnight incubation, read-out: Bcl-xl HIBIT NCIH1650 DC50
T2 construct: expressed in transfected cells; host or cells: NCI-H1650 (ATCC No. CRL-5883), engineered HiBiT cell line
Method in brief: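 NCI-H1650 cells expressing HiBiT-tagged BCL-xL (5000/well) were treated overnight at 37° C with 10 concentrations, final 0.508 nM-10 μM, in triplicate. Remaining BCL-xL measured by Nano-Glo HiBiT lytic luminescence, normalized to untreated cells; 50% values by four-parameter logistic fit.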

T2 sequence (Q07817 whole entry): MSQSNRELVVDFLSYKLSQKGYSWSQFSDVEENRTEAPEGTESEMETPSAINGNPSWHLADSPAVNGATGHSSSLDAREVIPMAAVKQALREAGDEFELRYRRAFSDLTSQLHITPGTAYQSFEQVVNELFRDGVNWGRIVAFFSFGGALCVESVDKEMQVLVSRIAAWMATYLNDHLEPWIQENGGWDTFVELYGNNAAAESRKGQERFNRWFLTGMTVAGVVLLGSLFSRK
T1 sequence (Q07817 whole entry): as above

Row | SMILES | IC50 [1] [nM] | DC50 [2] [nM] | GI50 [3] [nM] | DC50 [4] [nM]
1 | Cc1ncsc1-c1ccc([C@H](C)NC(=O)[C@@H]2C[C@@H](O)CN2C(=O)[C@@H](NC(=O)COCCCCCCCCCCCCCN(C)CCOC23CC4(C)CC(C)(CC(Cn5ncc(-c6ccc(N7CCCc8c7nnc(Nc7nc9ccccc9s7)c8C)nc6C(=O)O)c5C)(C4)C2)C3)C(C)(C)C)cc1 [Example 111, 6-[3-(1,3-benzothiazol-2-ylamino)-4-methyl-6,7-dihydro-5H-pyrido[2,3-c]pyridazin-8-yl]-3-[1-[[3-[2-[13-[2-[[(1S)-1-[(2S,4R)-4-hydroxy-2-[[(1S)-1-[4-(4-methylthiazol-5-yl)phenyl]ethyl]carbamoyl]pyrrolidine-1-carbonyl]-2,2-dimethyl-propyl]amino]-2-oxo-ethoxy]tridecyl-methyl-amino]ethoxy]-5,7-dimethyl-1-adamantyl]methyl]-5-methyl-pyrazol-4-yl]pyridine-2-carboxylic acid] | 2.62 | 0.4 | 41 | 0.5
2 | Cc1ncsc1-c1ccc([C@H](C)NC(=O)[C@@H]2C[C@@H](O)CN2C(=O)[C@@H](NC(=O)COCCOCCOCCN(C)CCOC23CC4(C)CC(C)(CC(Cn5ncc(-c6ccc(N7CCCc8c7nnc(Nc7nc9ccccc9s7)c8C)nc6C(=O)O)c5C)(C4)C2)C3)C(C)(C)C)cc1 [Example 113, 6-[3-(1,3-benzothiazol-2-ylamino)-4-methyl-6,7-dihydro-5H-pyrido[2,3-c]pyridazin-8-yl]-3-[1-[[3-[2-[2-[2-[2-[2-[[(1S)-1-[(2S,4R)-4-hydroxy-2-[[(1S)-1-[4-(4-methylthiazol-5-yl)phenyl]ethyl]carbamoyl]pyrrolidine-1-carbonyl]-2,2-dimethyl-propyl]amino]-2-oxo-ethoxy]ethoxy]ethoxy]ethyl-methyl-amino]ethoxy]-5,7-dimethyl-1-adamantyl]methyl]-5-methyl-pyrazol-4-yl]pyridine-2-carboxylic acid] | 20.6 | > 316 | 49 | > 1670
3 | Cc1ncsc1-c1ccc(CNC(=O)[C@@H]2C[C@@H](O)CN2C(=O)[C@@H](NC(=O)C2(F)CC2)C(C)(C)SCCCCCCCCCCCN(C)CCOC23CC4(C)CC(C)(CC(Cn5ncc(-c6ccc(N7CCCc8c7nnc(Nc7nc9ccccc9s7)c8C)nc6C(=O)O)c5C)(C4)C2)C3)cc1 [Example 117, 6-[3-(1,3-benzothiazol-2-ylamino)-4-methyl-6,7-dihydro-5H-pyrido[2,3-c]pyridazin-8-yl]-3-[1-[[3-[2-[11-[(2R)-2-[(1-fluorocyclopropanecarbonyl)amino]-3-[(2S,4R)-4-hydroxy-2-[[4-(4-methylthiazol-5-yl)phenyl]methylcarbamoyl]pyrrolidin-1-yl]-1,1-dimethyl-3-oxo-propyl]sulfanylundecyl-methyl-amino]ethoxy]-5,7-dimethyl-1-adamantyl]methyl]-5-methyl-pyrazol-4-yl]pyridine-2-carboxylic acid] | 8.25 | 1.17 | 89 | > 1670
4 | Cc1ncsc1-c1ccc(CNC(=O)[C@@H]2C[C@@H](O)CN2C(=O)[C@@H](NC(=O)C2(F)CC2)C(C)(C)SCCCCCCCCCCCCCN(C)CCOC23CC4(C)CC(C)(CC(Cn5ncc(-c6ccc(N7CCCc8c7nnc(Nc7nc9ccccc9s7)c8C)nc6C(=O)O)c5C)(C4)C2)C3)cc1 [Example 118, 6-[3-(1,3-benzothiazol-2-ylamino)-4-methyl-6,7-dihydro-5H-pyrido[2,3-c]pyridazin-8-yl]-3-[1-[[3-[2-[13-[(2R)-2-[(1-fluorocyclopropanecarbonyl)amino]-3-[(2S,4R)-4-hydroxy-2-[[4-(4-methylthiazol-5-yl)phenyl]methylcarbamoyl]pyrrolidin-1-yl]-1,1-dimethyl-3-oxo-propyl]sulfanyltridecyl-methyl-amino]ethoxy]-5,7-dimethyl-1-adamantyl]methyl]-5-methyl-pyrazol-4-yl]pyridine-2-carboxylic acid] | 7.83 | > 316 | 84 | > 1670
5 | Cc1c(Nc2nc3ccccc3s2)nnc2c1CCCN2c1ccc(-c2cnn(CC34CC5(C)CC(C)(C3)CC(OCCN(C)CCCCCCCCCCCCCCCOc3ccc6c(c3)C(=O)N(C3CCC(=O)NC3=O)C6=O)(C5)C4)c2C)c(C(=O)O)n1 (stereo not drawn) [Example 119, 6-[3-(1,3-benzothiazol-2-ylamino)-4-methyl-6,7-dihydro-5H-pyrido[2,3-c]pyridazin-8-yl]-3-[1-[[3-[2-[15-[2-(2,6-dioxo-3-piperidyl)-1,3-dioxo-isoindolin-5-yl]oxypentadecyl-methyl-amino]ethoxy]-5,7-dimethyl-1-adamantyl]methyl]-5-methyl-pyrazol-4-yl]pyridine-2-carboxylic acid] | 4.78 | 0.681 | 69 | > 1670
6 | Cc1ncsc1-c1ccc([C@H](C)NC(=O)[C@@H]2C[C@@H](O)CN2C(=O)[C@@H](NC(=O)CCCCCCNC(=O)c2nc(N3CCCc4c3nnc(Nc3nc5ccccc5s3)c4C)ccc2-c2cnn(CC34CC5(C)CC(C)(C3)CC(OCCN3CCCC3)(C5)C4)c2C)C(C)(C)C)cc1 [Example 120, 6-[3-(1,3-benzothiazol-2-ylamino)-4-methyl-6,7-dihydro-5H-pyrido[2,3-c]pyridazin-8-yl]-3-[1-[[3,5-dimethyl-7-(2-pyrrolidin-1-ylethoxy)-1-adamantyl]methyl]-5-methyl-pyrazol-4-yl]-N-[7-[[(1S)-1-[(2S,4R)-4-hydroxy-2-[[(1S)-1-[4-(4-methylthiazol-5-yl)phenyl]ethyl]carbamoyl]pyrrolidine-1-carbonyl]-2,2-dimethyl-propyl]amino]-7-oxo-heptyl]pyridine-2-carboxamide] | 7.29 | 1.68 | 119 | 1

Now from value to compound:

Row | IC50 [1] [nM] | DC50 [2] [nM] | GI50 [3] [nM] | DC50 [4] [nM] | SMILES
7 | 15.7 | 0.495 | 437 | 0.5 | Cc1cc(N(CCCCN(C)C(=O)CCCCCCCCCCC(=O)N[C@H](C(=O)N2C[C@H](O)C[C@H]2C(=O)N[C@@H](C)c2ccc(-c3scnc3C)cc2)C(C)(C)C)c2ccc(-c3cnn(CC45CC6(C)CC(C)(C4)CC(OCCN(C)C)(C6)C5)c3C)c(C(=O)O)n2)nnc1Nc1nc2ccccc2s1 [Example 112, 6-[[6-(1,3-benzothiazol-2-ylamino)-5-methyl-pyridazin-3-yl]-[4-[[12-[[(1S)-1-[(2S,4R)-4-hydroxy-2-[[(1S)-1-[4-(4-methylthiazol-5-yl)phenyl]ethyl]carbamoyl]pyrrolidine-1-carbonyl]-2,2-dimethyl-propyl]amino]-12-oxo-dodecanoyl]-methyl-amino]butyl]amino]-3-[1-[[3-[2-(dimethylamino)ethoxy]-5,7-dimethyl-1-adamantyl]methyl]-5-methyl-pyrazol-4-yl]pyridine-2-carboxylic acid]
8 | 24.8 | 2.67 | 1720 | 1 | Cc1cc(N(CCCCN(C)C(=O)CCCCCCCCCC(=O)N[C@H](C(=O)N2C[C@H](O)C[C@H]2C(=O)N[C@@H](C)c2ccc(-c3scnc3C)cc2)C(C)(C)C)c2ccc(-c3cnn(CC45CC6(C)CC(C)(C4)CC(OCCN(C)C)(C6)C5)c3C)c(C(=O)O)n2)nnc1Nc1nc2ccccc2s1 [Example 114, 6-[[6-(1,3-benzothiazol-2-ylamino)-5-methyl-pyridazin-3-yl]-[4-[[11-[[(1S)-1-[(2S,4R)-4-hydroxy-2-[[(1S)-1-[4-(4-methylthiazol-5-yl)phenyl]ethyl]carbamoyl]pyrrolidine-1-carbonyl]-2,2-dimethyl-propyl]amino]-11-oxo-undecanoyl]-methyl-amino]butyl]amino]-3-[1-[[3-[2-(dimethylamino)ethoxy]-5,7-dimethyl-1-adamantyl]methyl]-5-methyl-pyrazol-4-yl]pyridine-2-carboxylic acid]
9 | 16.1 | 3.6 | 45 | 1 | Cc1cc(N(CCCCN(C)C(=O)CCCCCCCCCCCCC(=O)N[C@H](C(=O)N2C[C@H](O)C[C@H]2C(=O)N[C@@H](C)c2ccc(-c3scnc3C)cc2)C(C)(C)C)c2ccc(-c3cnn(CC45CC6(C)CC(C)(C4)CC(OCCN(C)C)(C6)C5)c3C)c(C(=O)O)n2)nnc1Nc1nc2ccccc2s1 [Example 116, 6-[[6-(1,3-benzothiazol-2-ylamino)-5-methyl-pyridazin-3-yl]-[4-[[14-[[(1S)-1-[(2S,4R)-4-hydroxy-2-[[(1S)-1-[4-(4-methylthiazol-5-yl)phenyl]ethyl]carbamoyl]pyrrolidine-1-carbonyl]-2,2-dimethyl-propyl]amino]-14-oxo-tetradecanoyl]-methyl-amino]butyl]amino]-3-[1-[[3-[2-(dimethylamino)ethoxy]-5,7-dimethyl-1-adamantyl]methyl]-5-methyl-pyrazol-4-yl]pyridine-2-carboxylic acid]
